Where two headings read alike, the source gives them in different places.
Experiments:
Format in all cases: binding
[1] = target: T1, HeLa cell extract proteins (Homo sapiens, UniProt P47897)
T1 construct: endogenous in cells; host or cells: HeLa cell extract
T1 sequence (P47897 1-775): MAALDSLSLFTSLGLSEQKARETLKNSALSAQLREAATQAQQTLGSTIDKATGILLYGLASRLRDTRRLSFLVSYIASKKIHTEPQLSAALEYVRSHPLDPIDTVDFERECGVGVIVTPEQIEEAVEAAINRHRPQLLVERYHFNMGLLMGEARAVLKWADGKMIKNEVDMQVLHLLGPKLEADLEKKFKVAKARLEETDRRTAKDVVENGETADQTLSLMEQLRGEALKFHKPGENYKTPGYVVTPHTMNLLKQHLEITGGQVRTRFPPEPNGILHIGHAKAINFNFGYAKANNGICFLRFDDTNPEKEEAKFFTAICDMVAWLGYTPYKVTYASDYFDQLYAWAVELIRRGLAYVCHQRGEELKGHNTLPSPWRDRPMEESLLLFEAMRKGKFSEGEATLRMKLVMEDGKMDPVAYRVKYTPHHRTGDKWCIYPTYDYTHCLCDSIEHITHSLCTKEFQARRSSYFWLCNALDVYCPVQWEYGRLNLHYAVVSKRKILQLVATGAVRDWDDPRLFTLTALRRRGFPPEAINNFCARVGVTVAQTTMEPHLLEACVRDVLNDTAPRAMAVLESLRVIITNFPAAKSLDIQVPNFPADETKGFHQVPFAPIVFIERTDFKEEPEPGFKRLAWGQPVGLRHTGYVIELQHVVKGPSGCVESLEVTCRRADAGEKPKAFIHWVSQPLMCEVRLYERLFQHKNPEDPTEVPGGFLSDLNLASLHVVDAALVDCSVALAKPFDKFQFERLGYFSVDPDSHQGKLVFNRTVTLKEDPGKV

[2] = target: T2, HeLa cell extract proteins (Homo sapiens, UniProt Q6JQN1)
T2 construct: endogenous in cells; host or cells: HeLa cell extract
T2 sequence (Q6JQN1 1-1059): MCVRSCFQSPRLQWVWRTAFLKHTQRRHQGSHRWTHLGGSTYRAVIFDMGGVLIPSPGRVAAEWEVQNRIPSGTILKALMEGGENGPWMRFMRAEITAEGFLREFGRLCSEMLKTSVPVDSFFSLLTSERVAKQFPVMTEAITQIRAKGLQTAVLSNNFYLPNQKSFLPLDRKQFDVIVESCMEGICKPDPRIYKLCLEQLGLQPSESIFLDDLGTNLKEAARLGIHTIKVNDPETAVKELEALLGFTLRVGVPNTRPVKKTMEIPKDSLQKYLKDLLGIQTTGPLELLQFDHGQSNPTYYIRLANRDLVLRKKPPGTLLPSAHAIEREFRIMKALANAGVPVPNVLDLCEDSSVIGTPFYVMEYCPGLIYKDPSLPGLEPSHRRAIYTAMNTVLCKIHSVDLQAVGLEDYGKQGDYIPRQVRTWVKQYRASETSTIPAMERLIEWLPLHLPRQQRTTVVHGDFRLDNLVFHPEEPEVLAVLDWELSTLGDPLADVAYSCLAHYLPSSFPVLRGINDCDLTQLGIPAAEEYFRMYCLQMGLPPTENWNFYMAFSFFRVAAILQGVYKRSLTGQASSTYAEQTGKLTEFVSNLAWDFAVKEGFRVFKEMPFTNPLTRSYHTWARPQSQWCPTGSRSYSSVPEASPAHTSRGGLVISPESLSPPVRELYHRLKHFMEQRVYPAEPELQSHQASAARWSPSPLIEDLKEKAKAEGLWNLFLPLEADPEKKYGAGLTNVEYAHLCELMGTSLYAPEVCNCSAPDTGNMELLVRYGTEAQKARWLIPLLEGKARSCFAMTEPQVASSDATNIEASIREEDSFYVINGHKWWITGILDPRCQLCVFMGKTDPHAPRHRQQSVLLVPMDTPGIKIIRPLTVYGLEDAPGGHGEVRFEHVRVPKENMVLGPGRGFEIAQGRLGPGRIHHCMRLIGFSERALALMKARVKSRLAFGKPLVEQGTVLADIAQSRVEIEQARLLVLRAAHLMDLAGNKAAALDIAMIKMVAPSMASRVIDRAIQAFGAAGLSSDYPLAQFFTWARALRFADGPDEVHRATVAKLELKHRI

[3] = target: T3, HeLa cell extract proteins (Homo sapiens, UniProt P51648)
T3 construct: endogenous in cells; host or cells: HeLa cell extract
T3 sequence (P51648 whole entry): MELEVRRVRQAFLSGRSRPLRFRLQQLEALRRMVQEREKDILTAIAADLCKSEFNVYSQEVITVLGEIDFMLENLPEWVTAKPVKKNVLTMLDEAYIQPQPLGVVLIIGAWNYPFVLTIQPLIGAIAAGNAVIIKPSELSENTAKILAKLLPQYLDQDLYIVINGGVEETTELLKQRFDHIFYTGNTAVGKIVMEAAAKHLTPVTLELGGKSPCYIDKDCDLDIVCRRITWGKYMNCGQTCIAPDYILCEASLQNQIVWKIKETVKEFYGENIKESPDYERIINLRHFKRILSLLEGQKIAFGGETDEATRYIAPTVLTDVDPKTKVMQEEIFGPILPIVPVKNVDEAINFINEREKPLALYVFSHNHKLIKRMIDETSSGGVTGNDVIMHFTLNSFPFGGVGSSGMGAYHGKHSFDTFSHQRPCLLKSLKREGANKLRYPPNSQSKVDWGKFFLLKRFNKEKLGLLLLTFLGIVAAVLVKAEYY

[4] = target: T4, HeLa cell extract proteins (Homo sapiens, UniProt Q969M3)
T4 construct: endogenous in cells; host or cells: HeLa cell extract
T4 sequence (Q969M3 whole entry): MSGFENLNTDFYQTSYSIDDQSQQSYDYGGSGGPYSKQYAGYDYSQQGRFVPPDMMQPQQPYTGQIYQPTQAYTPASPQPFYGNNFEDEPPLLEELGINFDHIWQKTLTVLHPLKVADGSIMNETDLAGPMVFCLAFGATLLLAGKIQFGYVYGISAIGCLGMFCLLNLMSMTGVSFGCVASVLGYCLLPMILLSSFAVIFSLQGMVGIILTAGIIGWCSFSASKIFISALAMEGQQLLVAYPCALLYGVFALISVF

[5] = target: T5, HeLa cell extract proteins (Homo sapiens, UniProt P04080)
T5 construct: endogenous in cells; host or cells: HeLa cell extract
T5 sequence (P04080 1-98): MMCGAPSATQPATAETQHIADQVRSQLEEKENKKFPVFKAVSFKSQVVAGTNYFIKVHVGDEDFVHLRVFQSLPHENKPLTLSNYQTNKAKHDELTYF

[6] = target: T6, HeLa cell extract proteins (Homo sapiens, UniProt Q9H857)
T6 construct: endogenous in cells; host or cells: HeLa cell extract
T6 sequence (Q9H857 1-520): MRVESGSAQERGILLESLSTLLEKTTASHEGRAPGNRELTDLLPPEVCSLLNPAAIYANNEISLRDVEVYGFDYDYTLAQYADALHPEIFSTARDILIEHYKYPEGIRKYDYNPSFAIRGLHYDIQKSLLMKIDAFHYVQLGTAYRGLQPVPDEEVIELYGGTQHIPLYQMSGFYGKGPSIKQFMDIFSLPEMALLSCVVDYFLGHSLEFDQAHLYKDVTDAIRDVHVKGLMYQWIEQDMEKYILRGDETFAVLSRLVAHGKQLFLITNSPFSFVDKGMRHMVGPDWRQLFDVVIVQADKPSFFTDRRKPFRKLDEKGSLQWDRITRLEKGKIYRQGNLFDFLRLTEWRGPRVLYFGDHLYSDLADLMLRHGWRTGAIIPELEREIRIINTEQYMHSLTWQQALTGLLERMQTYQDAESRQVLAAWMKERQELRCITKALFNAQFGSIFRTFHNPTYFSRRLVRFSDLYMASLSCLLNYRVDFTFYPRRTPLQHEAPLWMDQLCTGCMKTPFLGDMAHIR

[7] = target: T7, HeLa cell extract proteins (Homo sapiens, UniProt P40939)
T7 construct: endogenous in cells; host or cells: HeLa cell extract
T7 sequence (P40939 37-763): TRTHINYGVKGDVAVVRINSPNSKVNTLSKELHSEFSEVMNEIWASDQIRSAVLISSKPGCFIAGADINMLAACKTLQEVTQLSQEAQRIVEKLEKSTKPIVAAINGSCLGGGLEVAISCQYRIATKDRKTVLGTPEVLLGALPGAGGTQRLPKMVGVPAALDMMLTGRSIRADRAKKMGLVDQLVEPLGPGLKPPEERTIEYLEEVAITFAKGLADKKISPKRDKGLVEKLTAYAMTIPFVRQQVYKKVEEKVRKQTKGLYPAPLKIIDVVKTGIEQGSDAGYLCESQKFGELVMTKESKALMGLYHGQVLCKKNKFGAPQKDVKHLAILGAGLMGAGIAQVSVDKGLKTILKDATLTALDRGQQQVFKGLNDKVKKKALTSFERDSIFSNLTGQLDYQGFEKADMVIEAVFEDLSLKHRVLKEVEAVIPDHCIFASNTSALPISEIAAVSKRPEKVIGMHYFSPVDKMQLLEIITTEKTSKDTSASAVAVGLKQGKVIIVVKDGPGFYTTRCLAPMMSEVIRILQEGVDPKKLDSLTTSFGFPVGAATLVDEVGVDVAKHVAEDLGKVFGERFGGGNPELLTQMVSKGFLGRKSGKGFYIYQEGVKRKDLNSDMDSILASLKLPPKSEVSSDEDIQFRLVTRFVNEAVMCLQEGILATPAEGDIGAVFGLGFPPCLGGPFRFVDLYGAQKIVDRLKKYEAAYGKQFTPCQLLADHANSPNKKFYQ

[8] = target: T8, HeLa cell extract proteins (Homo sapiens, UniProt P14625)
T8 construct: endogenous in cells; host or cells: HeLa cell extract
T8 sequence (P14625 22-803): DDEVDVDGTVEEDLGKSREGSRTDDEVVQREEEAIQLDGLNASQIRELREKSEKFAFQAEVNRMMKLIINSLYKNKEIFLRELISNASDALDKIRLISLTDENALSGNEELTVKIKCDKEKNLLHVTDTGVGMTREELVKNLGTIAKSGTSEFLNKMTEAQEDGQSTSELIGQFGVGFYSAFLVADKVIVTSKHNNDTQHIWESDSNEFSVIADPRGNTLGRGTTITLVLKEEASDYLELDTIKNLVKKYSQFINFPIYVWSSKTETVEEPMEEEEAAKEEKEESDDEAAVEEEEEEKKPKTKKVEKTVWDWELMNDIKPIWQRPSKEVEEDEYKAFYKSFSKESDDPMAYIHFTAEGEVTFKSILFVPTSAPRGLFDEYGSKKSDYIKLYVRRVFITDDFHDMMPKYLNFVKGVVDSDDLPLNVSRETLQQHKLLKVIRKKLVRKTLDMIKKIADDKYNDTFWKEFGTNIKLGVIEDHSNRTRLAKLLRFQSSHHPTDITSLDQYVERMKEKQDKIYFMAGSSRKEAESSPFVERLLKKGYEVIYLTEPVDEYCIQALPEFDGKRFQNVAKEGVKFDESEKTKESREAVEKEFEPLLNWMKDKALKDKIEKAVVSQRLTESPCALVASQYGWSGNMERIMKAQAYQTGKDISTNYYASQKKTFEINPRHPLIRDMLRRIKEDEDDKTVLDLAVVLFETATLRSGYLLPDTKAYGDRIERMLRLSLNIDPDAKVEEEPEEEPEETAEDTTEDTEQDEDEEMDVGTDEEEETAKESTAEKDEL

[9] = target: T9, HeLa cell extract proteins (Homo sapiens, UniProt P55072)
T9 construct: endogenous in cells; host or cells: HeLa cell extract
T9 sequence (P55072 whole entry): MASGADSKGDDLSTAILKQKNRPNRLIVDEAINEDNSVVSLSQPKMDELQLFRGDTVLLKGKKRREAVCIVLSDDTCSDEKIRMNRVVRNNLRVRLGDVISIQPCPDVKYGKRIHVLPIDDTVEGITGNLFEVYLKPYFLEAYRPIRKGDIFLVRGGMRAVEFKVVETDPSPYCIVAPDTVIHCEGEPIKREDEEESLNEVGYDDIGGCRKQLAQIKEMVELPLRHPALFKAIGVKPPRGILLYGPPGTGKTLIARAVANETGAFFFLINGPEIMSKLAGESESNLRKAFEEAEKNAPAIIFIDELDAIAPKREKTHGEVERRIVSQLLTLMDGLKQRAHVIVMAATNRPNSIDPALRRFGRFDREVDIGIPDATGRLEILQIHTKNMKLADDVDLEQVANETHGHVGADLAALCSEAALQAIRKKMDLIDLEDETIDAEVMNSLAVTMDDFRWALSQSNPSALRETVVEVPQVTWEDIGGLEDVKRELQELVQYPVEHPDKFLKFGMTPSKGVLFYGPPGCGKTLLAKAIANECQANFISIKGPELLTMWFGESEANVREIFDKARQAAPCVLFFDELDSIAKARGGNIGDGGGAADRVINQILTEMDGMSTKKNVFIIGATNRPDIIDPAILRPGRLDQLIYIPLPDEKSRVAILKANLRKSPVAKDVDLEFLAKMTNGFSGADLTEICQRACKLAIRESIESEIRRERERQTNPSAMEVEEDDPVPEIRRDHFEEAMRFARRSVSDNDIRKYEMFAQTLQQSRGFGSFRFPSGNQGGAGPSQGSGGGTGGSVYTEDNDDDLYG

SMILES | fold changes relative to vehicle control ([1]; HeLa, protein QARS) | fold changes relative to vehicle control ([2]; captured protein ACAD10, HeLa) | fold changes relative to vehicle control ([3]; HeLa, protein ALDH3A2) | fold changes relative to vehicle control ([4]; captured protein YIPF5, HeLa) | fold changes relative to vehicle control ([5]; HeLa, protein CSTB) | fold changes relative to vehicle control ([6]; protein NT5DC2, HeLa) | fold changes relative to vehicle control ([7]; protein HADHA, HeLa) | fold changes relative to vehicle control ([9]; protein VCP, HeLa) | fold changes relative to vehicle control ([1]; HeLa, captured protein QARS) | fold changes relative to vehicle control ([2]; protein ACAD10, HeLa) | fold changes relative to vehicle control ([4]; HeLa, captured protein YIPF5) | fold changes relative to vehicle control ([6]; HeLa, captured protein NT5DC2) | fold changes relative to vehicle control ([7]; HeLa, protein HADHA) | fold changes relative to vehicle control ([8]; HeLa, protein HSP90B1) | fold changes relative to vehicle control ([9]; HeLa, protein VCP) | further results
Nc1nc2cccc(-c3ccccc3)c2n1Cc1ccc(Cl)c(Cl)c1 [compound 3] | 1.01 | 0.94 | 1.05 | 0.72 | 1.17 | 1 | 1.07 | 0.94 | – | – | – | – | – | – | – | fold changes relative to vehicle control ([8]; HeLa, protein HSP90B1 (E[…].)): 0.91 fold
CCCCCCOc1ccc(Cc2cnc(N)nc2N)cc1 [compound 1] | 0.99 | 0.84 | 0.94 | 1.43 | 1.08 | 1.05 | 1 | 0.94 | – | – | – | – | – | – | – | fold changes relative to vehicle control ([8]; HeLa, protein HSP90B1 (E[…].)): 1.35 fold
NCCCNc1ccc(C(=O)NC(CCC(=O)O)C(=O)O)cc1 (stereo not drawn) [compound 7] | – | – | 0.89 | – | 1.24 | – | – | – | 0.92 | 0.95 | 0.83 | 0.97 | 0.99 | 0.89 | 1.01 | –
CCCCCCOc1cccc(Cc2cnc(N)nc2N)c1 [compound 2] | 1.16 | 0.84 | 1.07 | 1.15 | 0.99 | 0.91 | 1.45 | 1.29 | – | – | – | – | – | – | – | fold changes relative to vehicle control ([8]; HeLa, protein HSP90B1 (ENDOPLASMIN PRECURSOR.)): 2.51 fold
NCCOCCOCC(=O)Nc1nc2ncc(CNc3ccc(C(=O)NC(CCC(=O)O)C(=O)O)cc3)nc2c(=O)[nH]1 (stereo not drawn) [compound 6] | – | – | 0.92 | – | 1.29 | – | – | – | 0.95 | 0.76 | 0.93 | 0.96 | 1.05 | 1.18 | 1.07 | –
Nc1nc2[nH]cc(CCc3ccc(C(=O)N[C@@H](CCC(=O)O)C(=O)O)cc3)c2c(=O)[nH]1 [PTX, pemetrexed] | – | – | – | – | – | – | – | – | – | – | – | – | – | – | – | fold changes relative to vehicle control [1]: 0.9; fold changes relative to vehicle control [2]: 0.71; fold changes relative to vehicle control [3]: 0.93; fold changes relative to vehicle control [4]: 0.98; fold changes relative to vehicle control [5]: 1.26; fold changes relative to vehicle control [6]: 0.91; fold changes relative to vehicle control [7]: 0.89; fold changes relative to vehicle control [8]: 1.14; fold changes relative to vehicle control [9]: 0.98
Nc1nc2c(c(=O)[nH]1)N(C=O)C(CNc1ccc(C(=O)N[C@@H](CCC(=O)O)C(=O)O)cc1)CN2 (stereo partly drawn) [LEU, leucovorin] | – | – | 0.89 | – | 1.07 | – | – | – | 0.97 | 0.96 | 0.94 | 0.94 | 0.9 | 1.04 | 0.98 | –

Reference: article PMC6199744, “Development of Chemical Proteomics for the Folateome and Analysis of the Kinetoplastid Folateome” (ACS Infectious Diseases, 2018)
